Assay results published in patent US20110070232A1, “Combination Therapy with an Antitumor Alkaloid” (Pharma Mar, S.A., priority 2008, published 2011).
Where two headings read alike, the source gives them in different places.

Assays:
Format in all cases: in vivo, mice
PLC/PRF/5 tumors = system: PLC/PRF/5 tumors
Method: (§1) Female athymic nude mice (Harlan Sprague Dawley, Madison, Wis.) were utilized for all experiments. Animals were housed in ventilated rack caging with food and water ad libitum. The mice were acclimated for at least 5 days prior to tumor implantation with a tumor cell suspension.
The tumor model used in these studies was PLC/PRF/5 cell line, which was obtained from the ATCC (Manassas, Va.).
PLC/PRF/5 were grown in Eagle's minimum essential medium supplemented with 10% FBS and 1% L-glutamine. Each animal was implanted SC on the right flank, using a 13G trochar and 1 mL syringe, with 5×10^6 PLC/PRF/5 cells in a 0.2 mL suspension of 50% Matrigel and 50% serum free MEM medium, without antibiotics. Bacterial cultures were performed on aliquots of the cells prepared for implantation.
Treatments were initiated on DPI 14.
(§2) Tumor size measurements were recorded twice weekly from the treatment initiation until the termination of the study.
(§3) Mean, standard deviation and standard error of the mean were determined for tumor volume for all animal groups at all assessments. Student's t test was performed on tumor volumes at each measurement day, including at the end of the study, to determine whether there were any statistically significant differences between combination treatment groups and single monotherapy treatment groups.

HepG2 tumors = system: HepG2 tumors
Method: as §1
The tumor model used in these studies was HepG2 cell line, which was obtained from the ATCC (Manassas, Va.).
HepG2 cells were grown in MEM supplemented with 10% FBS, 1.5 g/L sodium bicarbonate, 0.1 mM non-essential amino acids, 1.0 mM sodium pyruvate, and 2 mM L-glutamine. Each animal was implanted SC on the right flank, using a 13G trochar, with 5×10^6 HepG2 cells in a 0.2 mL suspension of 50% Matrigel and 50% serum free medium, without antibiotics. Bacterial cultures were performed on aliquots of the cells prepared for implantation.
Treatments were initiated on DPI 19.
as §2, §3

NCI-H460 tumors = settings: alone or with PM00104 0.9 mg/kg/day IV
Method: Female athymic nude mice (Harlan Sprague Dawley, Madison, Wis.) were utilized for all experiments. Animals were housed in ventilated rack caging with food and water ad libitum. The mice were acclimated for at least 5 days prior to tumor implantation.
The tumor model used in this study was NCI-H460 cell line which is a human NSCLC cell line obtained from the ATCC (Manassas, Va.). […] Cells from in vitro passage 7 were implanted SC into study mice using a 1 ml syringe with a 13G trocar: 5×10^6 cells/mouse in 0.2 ml 50% Matrigel/50% RPMI medium of NCI-H460 without serum or antibiotics. Bacterial culture was taken on cells used to implant the study.
Treatments were initiated on DPI 9.
Tumor size measurements were recorded 2-3 times/week from the treatment initiation until the termination of the study.
as §3

[1] = day 14, PM00104 0.90, sorafenib 60 mg/kg/day
[2] = day 22, PM00104 0.90, sorafenib 30 mg/kg/day
[3] = day 22, PM00104 0.90, sorafenib 60 mg/kg/day
[4] = day 25, PM00104 0.90, sorafenib 60 mg/kg/day
[5] = day 28, PM00104 0.90, sorafenib 60 mg/kg/day
[6] = day 32, PM00104 0.90, sorafenib 60 mg/kg/day
[7] = day 39, PM00104 0.90, sorafenib 60 mg/kg/day
[8] = day 42, PM00104 0.90, sorafenib 60 mg/kg/day
[9] = day 19, PM00104 0.90, sorafenib 30 mg/kg/day
[10] = day 26, PM00104 0.90, sorafenib 60 mg/kg/day
[11] = day 30, PM00104 0.90, sorafenib 30 mg/kg/day
[12] = day 30, PM00104 0.90, sorafenib 60 mg/kg/day
[13] = day 33, PM00104 0.90, sorafenib 60 mg/kg/day

CNC(=O)c1cc(Oc2ccc(NC(=O)Nc3ccc(Cl)c(C(F)(F)F)c3)cc2)ccn1 [sorafenib]
% T/C (PLC/PRF/5 tumors; day 14, PM00104 0.90, sorafenib 30 mg/kg/day): 99.5%
% Inhibition (PLC/PRF/5 tumors; [1]): 1.5%
% T/C (PLC/PRF/5 tumors; [1]): 98.5%
% Inhibition (PLC/PRF/5 tumors; day 18, PM00104 0.90, sorafenib 60 mg/kg/day): 26.4%
% T/C (PLC/PRF/5 tumors; [2]): 79.5%
% Inhibition (PLC/PRF/5 tumors; [3]): 47.8%
% T/C (PLC/PRF/5 tumors; [3]): 52.2%
% Inhibition (PLC/PRF/5 tumors; [4]): 46.6%
% T/C (PLC/PRF/5 tumors; [4]): 53.4%
% Inhibition (PLC/PRF/5 tumors; [5]): 56.6%
% T/C (PLC/PRF/5 tumors; [5]): 43.4%
% Inhibition (PLC/PRF/5 tumors; [6]): 57.1%
% T/C (PLC/PRF/5 tumors; [6]): 42.9%
% T/C (PLC/PRF/5 tumors; day 35, PM00104 0.90, sorafenib 30 mg/kg/day): 54.7%
% T/C (PLC/PRF/5 tumors; day 35, PM00104 0.90, sorafenib 60 mg/kg/day): 36.5%
% T/C (PLC/PRF/5 tumors; day 39, PM00104 0.90, sorafenib 30 mg/kg/day): 59.3%
% Inhibition (PLC/PRF/5 tumors; [7]): 49.8%
% T/C (PLC/PRF/5 tumors; [7]): 50.2%
% Inhibition (PLC/PRF/5 tumors; [8]): 44.6%
% T/C (PLC/PRF/5 tumors; [8]): 55.4%
% Inhibition (HepG2 tumors; day 19, PM00104 0.60, sorafenib 30 mg/kg/day): −1.4%
% Inhibition (HepG2 tumors; day 19, PM00104 0.60, sorafenib 60 mg/kg/day): 11.2%
% Inhibition (HepG2 tumors; [9]): −1.4%
% T/C (HepG2 tumors; [9]): 101.4%
% Inhibition (HepG2 tumors; day 19, PM00104 0.90, sorafenib 60 mg/kg/day): 11.2%
% Inhibition (HepG2 tumors; day 22, PM00104 0.60, sorafenib 30 mg/kg/day): −23.5%
% Inhibition (HepG2 tumors; day 22, PM00104 0.60, sorafenib 60 mg/kg/day): 21.3%
% Inhibition (HepG2 tumors; [2]): −23.5%
% T/C (HepG2 tumors; [2]): 123.5%
% Inhibition (HepG2 tumors; [3]): 21.3%
% T/C (HepG2 tumors; [3]): 78.7%
% Inhibition (HepG2 tumors; day 26, PM00104 0.60, sorafenib 30 mg/kg/day): 8.7%
% Inhibition (HepG2 tumors; day 26, PM00104 0.60, sorafenib 60 mg/kg/day): 39.9%
% Inhibition (HepG2 tumors; day 26, PM00104 0.90, sorafenib 30 mg/kg/day): 8.7%
% Inhibition (HepG2 tumors; [10]): 39.9%
% T/C (HepG2 tumors; [10]): 60.1%
% Inhibition (HepG2 tumors; day 30, PM00104 0.60, sorafenib 30 mg/kg/day): −0.9%
% Inhibition (HepG2 tumors; day 30, PM00104 0.60, sorafenib 60 mg/kg/day): 38.2%
% Inhibition (HepG2 tumors; [11]): −0.9%
% T/C (HepG2 tumors; [11]): 100.9%
% Inhibition (HepG2 tumors; [12]): 38.2%
% T/C (HepG2 tumors; [12]): 61.8%
% Inhibition (HepG2 tumors; day 33, PM00104 0.60, sorafenib 30 mg/kg/day): 9.6%
% Inhibition (HepG2 tumors; day 33, PM00104 0.60, sorafenib 60 mg/kg/day): 33.8%
% Inhibition (HepG2 tumors; day 33, PM00104 0.90, sorafenib 30 mg/kg/day): 9.6%
% Inhibition (HepG2 tumors; [13]): 33.8%
% T/C (HepG2 tumors; [13]): 66.2%

CO[C@H]1C[C@@H]2CC[C@@H](C)[C@@](O)(O2)C(=O)C(=O)N2CCCC[C@H]2C(=O)O[C@H]([C@H](C)C[C@@H]2CC[C@@H](OC(=O)C(C)(CO)CO)[C@H](OC)C2)CC(=O)[C@H](C)/C=C(\C)[C@@H](O)[C@@H](OC)C(=O)[C@H](C)C[C@H](C)/C=C/C=C/C=C/1C [temsirolimus]
% T/C on day 9 (NCI-H460 tumors; Temsirolimus 10 mg/kg/day IP): 101.9%
% T/C on day 13 (NCI-H460 tumors; Temsirolimus 10 mg/kg/day IP): 60.4%
% T/C on day 16 (NCI-H460 tumors; Temsirolimus 10 mg/kg/day IP): 55.5%
% T/C on day 21 (NCI-H460 tumors; Temsirolimus 10 mg/kg/day IP): 40.5%
% T/C on day 24 (NCI-H460 tumors; Temsirolimus 10 mg/kg/day IP): 18.9%
% T/C on day 30 (NCI-H460 tumors; Temsirolimus 10 mg/kg/day IP): 22.0%
% T/C on day 38 (NCI-H460 tumors; Temsirolimus 10 mg/kg/day IP): 52.0%
% T/C on day 41 (NCI-H460 tumors; Temsirolimus 10 mg/kg/day IP): 66.4%
% T/C on day 9 (NCI-H460 tumors; Temsirolimus 20 mg/kg/day IP): 104.4%
% T/C on day 13 (NCI-H460 tumors; Temsirolimus 20 mg/kg/day IP): 66.4%
% T/C on day 16 (NCI-H460 tumors; Temsirolimus 20 mg/kg/day IP): 68.4%
% T/C on day 21 (NCI-H460 tumors; Temsirolimus 20 mg/kg/day IP): 46.8%
% T/C on day 24 (NCI-H460 tumors; Temsirolimus 20 mg/kg/day IP): 35.9%
% T/C on day 27 (NCI-H460 tumors; Temsirolimus 20 mg/kg/day IP): 15.9%
% T/C on day 30 (NCI-H460 tumors; Temsirolimus 20 mg/kg/day IP): 23.9%
% T/C on day 38 (NCI-H460 tumors; Temsirolimus 20 mg/kg/day IP): 61.2%
% T/C on day 41 (NCI-H460 tumors; Temsirolimus 20 mg/kg/day IP): 65.2%
